Test results from the OligoGym collection.
HELM strings list units from the 5' end as sugar, base in round brackets, then linkage (d deoxyribose, r ribose, m 2'-O-methyl, p phosphodiester). Strings are as the collection lists them; they lack the last nucleoside at the 3' end of the tested compound. [moe] = 2'-O-(2-methoxyethyl) (MOE); [sp] = phosphorothioate linkage; [m5C] = 5-methylcytosine

Biological target: GFAP
Assay: mouse, dose not given
Details: ASO

Substance: RNA1{[moe](T)[sp].[moe](G)p.[moe](G)p.[moe](T)p.[moe]([m5C])p.d([m5C])[sp].d(T)[sp].d(A)[sp].d(A)[sp].d(A)[sp].d(T)[sp].d(A)[sp].d(T)[sp].d(T)[sp].d([m5C])[sp].[moe](T)p.[moe](A)p.[moe](G)[sp].[moe](T)}$$$$ (last 3' nucleoside missing)
- 3 h FOB score: 1 score 0-7

Substance: RNA1{[moe](T)[sp].[moe](G)p.[moe](G)p.[moe](T)p.d(G)[sp].d([m5C])[sp].d(T)[sp].d(T)[sp].d(T)[sp].d(T)[sp].d(G)[sp].d([m5C])[sp].d([m5C])[sp].d([m5C])[sp].[moe]([m5C])p.[moe]([m5C])p.[moe](T)p.[moe](G)[sp].[moe](T)}$$$$ (last 3' nucleoside missing)
- 3 h FOB score: 1 score 0-7

Substance: RNA1{[moe](T)[sp].[moe](G)p.[moe](G)p.[moe]([m5C])p.[moe](A)[sp].d(A)[sp].d([m5C])[sp].d(A)[sp].d(G)[sp].d(T)[sp].d(T)[sp].d(T)[sp].d([m5C])[sp].d([m5C])[sp].d(A)[sp].[moe](T)p.[moe](A)p.[moe](A)[sp].[moe]([m5C])}$$$$ (last 3' nucleoside missing)
- 3 h FOB score: 1 score 0-7

Substance: RNA1{[moe](T)[sp].[moe](G)p.[moe](G)p.[moe]([m5C])p.[moe](A)[sp].d(G)[sp].d(T)[sp].d(A)[sp].d(T)[sp].d(T)[sp].d(A)[sp].d([m5C])[sp].d([m5C])[sp].[moe](T)p.[moe]([m5C])p.[moe](T)[sp].[moe](A)}$$$$ (last 3' nucleoside missing)
- 3 h FOB score: 0 score 0-7

Substance: RNA1{[moe](T)[sp].[moe](G)p.[moe](G)p.[moe]([m5C])p.[moe](A)[sp].d(G)[sp].d(T)[sp].d(A)[sp].d(T)[sp].d(T)[sp].d(A)[sp].d([m5C])[sp].d([m5C])[sp].d(T)[sp].d([m5C])[sp].[moe](T)p.[moe](A)p.[moe]([m5C])[sp].[moe](T)}$$$$ (last 3' nucleoside missing)
- 3 h FOB score: 1 score 0-7

Substance: RNA1{[moe](T)[sp].[moe](G)p.[moe](G)p.[moe]([m5C])p.[moe](A)p.[moe](G)p.d(T)[sp].d(A)[sp].d(T)[sp].d(T)[sp].d(A)[sp].d([m5C])[sp].d([m5C])[sp].d(T)[sp].d([m5C])[sp].d(T)[sp].[moe](A)p.[moe]([m5C])[sp].[moe](T)}$$$$ (last 3' nucleoside missing)
- 3 h FOB score: 0 score 0-7

Substance: RNA1{[moe](T)[sp].[moe](G)p.[moe](G)p.[moe]([m5C])p.[moe](A)p.d(G)[sp].d(T)[sp].d(A)[sp].d(T)[sp].d(T)[sp].d(A)[sp].d([m5C])[sp].d([m5C])[sp].d(T)[sp].d([m5C])[sp].[moe](T)p.[moe](A)p.[moe]([m5C])[sp].[moe](T)}$$$$ (last 3' nucleoside missing)
- 3 h FOB score: 1 score 0-7

Substance: RNA1{[moe](T)[sp].[moe](G)p.[moe](G)p.[moe]([m5C])p.d(A)[sp].d(G)[sp].d(T)[sp].d(A)[sp].d(T)[sp].d(T)[sp].d(A)[sp].d([m5C])[sp].d([m5C])[sp].d(T)[sp].[moe]([m5C])p.[moe](T)p.[moe](A)p.[moe]([m5C])[sp].[moe](T)}$$$$ (last 3' nucleoside missing)
- 3 h FOB score: 1 score 0-7

Substance: RNA1{[moe](T)[sp].[moe](G)p.[moe](T)p.[moe](A)p.[moe](T)p.d(T)[sp].d(A)[sp].d(G)[sp].d(G)[sp].d(A)[sp].d(T)[sp].d([m5C])[sp].d([m5C])[sp].d([m5C])[sp].d(A)[sp].[moe](T)p.[moe]([m5C])p.[moe](T)[sp].[moe](A)}$$$$ (last 3' nucleoside missing)
- 3 h FOB score: 4 score 0-7

Substance: RNA1{[moe](T)[sp].[moe](G)p.[moe](T)p.[moe](A)p.d(T)[sp].d(T)[sp].d(A)[sp].d(G)[sp].d(G)[sp].d(A)[sp].d(T)[sp].d([m5C])[sp].d([m5C])[sp].d([m5C])[sp].[moe](A)p.[moe](T)p.[moe]([m5C])p.[moe](T)[sp].[moe](A)}$$$$ (last 3' nucleoside missing)
- 3 h FOB score: 3 score 0-7

Substance: RNA1{[moe](T)[sp].[moe](G)p.[moe](T)p.[moe](G)p.[moe](A)[sp].d(T)[sp].d(T)[sp].d(T)[sp].d(T)[sp].d([m5C])[sp].d([m5C])[sp].d([m5C])[sp].d([m5C])[sp].[moe](G)p.[moe](T)p.[moe]([m5C])[sp].[moe](T)}$$$$ (last 3' nucleoside missing)
- 3 h FOB score: 0 score 0-7

Substance: RNA1{[moe](T)[sp].[moe](G)p.[moe](T)p.[moe](G)p.[moe](A)[sp].d(T)[sp].d(T)[sp].d(T)[sp].d(T)[sp].d([m5C])[sp].d([m5C])[sp].d([m5C])[sp].d([m5C])[sp].d(G)[sp].d(T)[sp].[moe]([m5C])p.[moe](T)p.[moe](T)[sp].[moe](T)}$$$$ (last 3' nucleoside missing)
- 3 h FOB score: 5 score 0-7

Substance: RNA1{[moe](T)[sp].[moe](G)p.[moe](T)p.[moe](G)p.[moe](A)[sp].d([m5C])[sp].d(T)[sp].d(A)[sp].d(T)[sp].d([m5C])[sp].d(T)[sp].d(A)[sp].d(G)[sp].[moe](G)p.[moe](A)p.[moe](T)[sp].[moe](T)}$$$$ (last 3' nucleoside missing)
- 3 h FOB score: 3 score 0-7

Substance: RNA1{[moe](T)[sp].[moe](G)p.[moe](T)p.[moe](G)p.[moe](T)[sp].d(A)[sp].d(T)[sp].d(T)[sp].d(A)[sp].d(G)[sp].d(G)[sp].d(A)[sp].d(T)[sp].[moe]([m5C])p.[moe]([m5C])p.[moe]([m5C])[sp].[moe](A)}$$$$ (last 3' nucleoside missing)
- 3 h FOB score: 4 score 0-7

Substance: RNA1{[moe](T)[sp].[moe](G)p.[moe](T)p.[moe](G)p.[moe](T)p.[moe](A)p.d(T)[sp].d(T)[sp].d(A)[sp].d(G)[sp].d(G)[sp].d(A)[sp].d(T)[sp].d([m5C])[sp].d([m5C])[sp].d([m5C])[sp].[moe](A)p.[moe](T)[sp].[moe]([m5C])}$$$$ (last 3' nucleoside missing)
- 3 h FOB score: 3 score 0-7

Substance: RNA1{[moe](T)[sp].[moe](G)p.[moe](T)p.[moe](G)p.[moe](T)p.d(A)[sp].d(T)[sp].d(T)[sp].d(A)[sp].d(G)[sp].d(G)[sp].d(A)[sp].d(T)[sp].d([m5C])[sp].d([m5C])[sp].[moe]([m5C])p.[moe](A)p.[moe](T)[sp].[moe]([m5C])}$$$$ (last 3' nucleoside missing)
- 3 h FOB score: 3 score 0-7

Substance: RNA1{[moe](T)[sp].[moe](G)p.[moe](T)p.[moe](G)p.[moe]([m5C])[sp].d(T)[sp].d(T)[sp].d(T)[sp].d(A)[sp].d(G)[sp].d(T)[sp].d(G)[sp].d(A)[sp].d([m5C])[sp].d([m5C])[sp].[moe](T)p.[moe](G)p.[moe](T)[sp].[moe](G)}$$$$ (last 3' nucleoside missing)
- 3 h FOB score: 5 score 0-7

Substance: RNA1{[moe](T)[sp].[moe](G)p.[moe](T)p.[moe](G)p.d(T)[sp].d(A)[sp].d(T)[sp].d(T)[sp].d(A)[sp].d(G)[sp].d(G)[sp].d(A)[sp].d(T)[sp].d([m5C])[sp].[moe]([m5C])p.[moe]([m5C])p.[moe](A)p.[moe](T)[sp].[moe]([m5C])}$$$$ (last 3' nucleoside missing)
- 3 h FOB score: 3 score 0-7

Substance: RNA1{[moe](T)[sp].[moe](G)p.[moe](T)p.[moe]([m5C])p.[moe](T)[sp].d(T)[sp].d(T)[sp].d(A)[sp].d(T)[sp].d(T)[sp].d(T)[sp].d(T)[sp].d(T)[sp].[moe]([m5C])p.[moe]([m5C])p.[moe](T)[sp].[moe]([m5C])}$$$$ (last 3' nucleoside missing)
- 3 h FOB score: 1 score 0-7
